Laboratory results as given in US6207399A, “Methods of determining endogenous thrombin potential (ETP) and thrombin substrates for use in said methods” (Hemker; Hendrik Coenraad, priority 1995, dated 2001).
Square brackets hold non-standard residues; d marks the D form. Peptide text beside a SMILES is read from it. * marks the point of attachment. pNA = O=[N+]([O-])c1ccc(N*)cc1; Nle = CCCC[C@H](N)C(=O)O; Orn = NCCC[C@H](N)C(=O)O

What was measured:
Format in all cases: biochemical
factor Xa = target: T1, factor Xa (Homo sapiens, UniProt P00742); experiment: Kinetic parameters of hydrolysis of the substrates by factor Xa in buffer A at 37° C. (Example 4, Table 3); parameters: key to Factor Xa kcat: NH: no hydrolysis; settings: for Factor Xa kcat / Factor Xa kcat /Km / Km: buffer A, 37° C., 50 nM factor Xa
T1 construct: human factor Xa samples; gift of Dr. T. Lindhout (University of Limburg, Maastricht)
Procedure: (§1) Kinetic parameters: The hydrolysis experiments were run in buffer A at 37° C. The liberation of p-nitroaniline was monitored at 405 nm in a dual wavelength (405-546 nm) spectrophotometer made in our workshop, using a personal computer for data recording. In a polystyrene microcuvette (total volume 500 μL), buffer A and substrate solution were added to obtain a final substrate concentration between 200 to 2000 μM. After 5 min of incubation at 37° C., enzyme solution was added to achieve a final concentration between 0.5 to 50 nM. The measurement was carried out at 37° C. in a thermostated cuvette-holder. The Michaelis constant (Km) and the catalytic constant (kcat) were obtained by measuring the initial reaction velocities at different substrate concentrations. The data obtained were fitted by linear regression on the Michaelis-Menten equation.
(§2) Kinetic parameters: The Km and kcat values for each substrate were determined at an enzyme concentration of 0.5-50 nM (thrombin) and 50 nM factor Xa. From the initial reaction velocities, measured for at least six substrate concentrations between 200 and 2000 μM, the Km and kcat values were calculated by linear regression on the Michaelis-Menten curve. Table 3 gives an overview of the kinetic parameters of the different substrates hydrolyzed by thrombin and by factor Xa in buffer A.

thrombin = thrombin (Homo sapiens, UniProt P00734); experiment: Kinetic parameters of hydrolysis of the substrates by thrombin in buffer A at 37° C. (Example 4, Table 3); parameters: Pure human α-thrombin; gift of Dr. T. Lindhout (University of Limburg, Maastricht); key to Thrombin kcat: NH: no hydrolysis; settings: for Thrombin kcat / Km / Thrombin kcat /Km: buffer A, 37° C.
Procedure: as §1, §2

human α-thrombin = target: T2, human α-thrombin (Homo sapiens, UniProt P00734); experiment: Kinetics of hydrolysis of substrates by human α-thrombin in buffer A at 37° C. (Example 2, Table 1)
T2 construct: Pure human α-thrombin; gift of Dr. T. Lindhout (University of Limburg, Maastricht)
Procedure: as §1, with “between 1” for “between 200”, “to 100” for “to 50”, “measuring” for “measuring the”
Kinetic parameters: In a preliminary experiment, the substrate was hydrolyzed under the following conditions: enzyme concentration: 10 to 20 nM, substrate concentration: 200 μM in buffer A to get an impression of the initial velocity. […] The results are given in table 1 and 2 for thrombin and factor Xa respectively. The Km and kcat for each substrate were determined from the initial velocities measured for at least six substrate concentrations in the concentration range as given. The enzyme concentration used gives a good signal to noise ratio. The data given are obtained from one or two experiments. The data from table 1 and 2 were only used as the first selection criterion to get a rough impression of the hydrolysis behaviour. Notwithstanding the preliminary character of the measurement it was helpful in the design of the substrates of our interest.

T1 sequence (P00742 41-179 limits assumed): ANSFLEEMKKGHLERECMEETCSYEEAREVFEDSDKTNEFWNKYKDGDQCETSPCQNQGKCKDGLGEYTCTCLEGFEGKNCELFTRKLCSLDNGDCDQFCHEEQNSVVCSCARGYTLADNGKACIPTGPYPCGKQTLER
T1 sequence (P00742 235-488 limits assumed): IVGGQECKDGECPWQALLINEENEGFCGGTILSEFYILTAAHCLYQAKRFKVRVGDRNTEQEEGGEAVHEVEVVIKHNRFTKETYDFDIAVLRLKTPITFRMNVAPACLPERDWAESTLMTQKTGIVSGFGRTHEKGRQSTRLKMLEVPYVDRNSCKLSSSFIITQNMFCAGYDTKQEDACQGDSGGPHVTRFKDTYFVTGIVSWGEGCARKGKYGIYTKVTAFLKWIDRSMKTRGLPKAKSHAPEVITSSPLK

Structure (SMILES) | Factor Xa kcat (factor Xa) | Factor Xa kcat /Km (factor Xa) [M/s] | Km (factor Xa) [µM] | Thrombin kcat (thrombin) | hydrolysis by Factor Xa (text on Table 3) (factor Xa) | hydrolysis by thrombin (text on Table 3) (thrombin) | Km (human α-thrombin) [µM] | kcat (human α-thrombin) [s⁻¹] | kcat /Km (human α-thrombin) [M/s] | Km (thrombin) [µM] | Thrombin kcat /Km (thrombin) [M/s]
CC(C)[C@H](NC(=O)CNC(=O)CNC(=O)[C@@H]1CCCN1C(=O)[C@@H](N)CCC(=O)O)C(=O)N[C@@H](CCCNC(=N)N)C(=O)Nc1ccc([N+](=O)[O-])cc1 [2HCl.H-EPGGVR-pNA, 2HCl.H-Glu-Pro-Gly-Gly-Val-Arg-pNA] (H-EPGGVR-pNA) | 0.45 s⁻¹ | 468 | 961 | NH | – | – | – | – | – | – | –
CC(C)[C@H](NC(=O)CN)C(=O)N[C@@H](CCCN)C(=O)Nc1ccc([N+](=O)[O-])cc1.Cl.Cl [2HCl.H-Gly-Val-Orn-pNA] (H-Gly-Val-[Orn]-pNA) | NH | – | – | NH | hydrolysed by neither thrombin nor Factor Xa | hydrolysed by neither thrombin nor Factor Xa | – | – | – | – | –
CC(C)[C@H](NC(=O)OCCS(C)(=O)=O)C(=O)N[C@@H](CCCCN)C(=O)Nc1ccc([N+](=O)[O-])cc1.Cl [Msc-Val-Lys-pNA.HCl] | NH | – | – | NH | – | – | – | – | – | – | –
Cl.Cl.NCCCC[C@H](NC(=O)[C@@H]1CCCN1C(=O)[C@H](N)Cc1ccccc1)C(=O)Nc1ccc([N+](=O)[O-])cc1 [2HCl.H-D-Phe-Pro-Lys-pNA] (H-[dF]-Pro-Lys-pNA) | NH | – | – | 90 s⁻¹ | – | – | 35 | 90.4 | 2.58e+06 | 35 | 2.58e+06
CCCC[C@H](NC(=O)[C@@H](NC(=O)OCCS(C)(=O)=O)C(C)C)C(=O)Nc1ccc([N+](=O)[O-])cc1 [Msc-Val-Nle-pNA] | NH | – | – | NH | – | – | – | – | – | – | –
CCCC[C@H](NC(=O)[C@@H](NC(=O)CN)C(C)C)C(=O)Nc1ccc([N+](=O)[O-])cc1.Cl [HCl.H-Gly-Val-Nle-pNA] (H-Gly-Val-[Nle]-pNA) | NH | – | – | NH | hydrolysed by neither thrombin nor Factor Xa | hydrolysed by neither thrombin nor Factor Xa | – | – | – | – | –
CC(C)[C@H](NC(=O)CNC(=O)[C@@H]1CCCN1C(=O)CNC(=O)[C@@H](N)CCC(=O)O)C(=O)N[C@@H](CCCNC(=N)N)C(=O)Nc1ccc([N+](=O)[O-])cc1 [2HCl.H-EGPGVR-pNA, 2HCl.H-Glu-Gly-Pro-Gly-Val-Arg-pNA] (H-EGPGVR-pNA) | 3.41 s⁻¹ | 1560 | 2190 | 9.07 s⁻¹ | – | – | – | – | – | 1070 | 8440
CC(C)C(N)C(=O)NC(CCCCN)C(=O)Nc1ccc([N+](=O)[O-])cc1.Cl.Cl (stereo not drawn) [2HCl.H-Val-Lys-pNA] | NH | – | – | NH | – | – | – | – | – | – | –
CC(C)[C@H](NC(=O)CNC(=O)[C@@H](N)CCC(=O)O)C(=O)N[C@@H](CCCNC(=N)N)C(=O)Nc1ccc([N+](=O)[O-])cc1 [2HCl.H-Glu-Gly-Val-Arg-pNA] (H-EGVR-pNA) | 0.93 s⁻¹ | 638 | 1430 | 3.51 s⁻¹ | – | – | – | – | – | 3270 | 1070
CC(C)[C@H](NC(=O)CN)C(=O)N[C@@H](CCCCN)C(=O)Nc1ccc([N+](=O)[O-])cc1.Cl.Cl [2HCl.H-Gly-Val-Lys pNA, 2HCl.H-Gly-Val-Lys-pNA] (H-Gly-Val-Lys-pNA) | NH | – | – | 0.20 s⁻¹ | not by Factor Xa | hydrolysed by thrombin | – | – | – | 986 | 198
CC(C)[C@H](NC(=O)[C@@H](N)CCC(=O)O)C(=O)N[C@@H](CCCNC(=N)N)C(=O)Nc1ccc([N+](=O)[O-])cc1.Cl.Cl [2HCl.H-Glu-Val-Arg-pNA] (H-Glu-Val-Arg-pNA) | 1.07 s⁻¹ | 709 | 1510 | 1.44 s⁻¹ | – | – | – | – | – | 932 | 1540
CC(C)[C@H](NC(=O)OCCS(C)(=O)=O)C(=O)N[C@@H](CCCN)C(=O)Nc1ccc([N+](=O)[O-])cc1.Cl [Msc-Val-Orn-pNA.HCl] | NH | – | – | NH | – | – | – | – | – | – | –
CC(C)[C@H](NC(=O)CNC(=O)CNC(=O)CNC(=O)[C@@H](N)CCC(=O)O)C(=O)N[C@@H](CCCNC(=N)N)C(=O)Nc1ccc([N+](=O)[O-])cc1 [2HCl.H-EGGGVR-pNA, 2HCl.H-Glu-Gly-Gly-Gly-Val-Arg-pNA] (H-EGGGVR-pNA) | 0.30 s⁻¹ | 201 | 1490 | 0.27 s⁻¹ | – | – | – | – | – | 379 | 704
